Results on two molecules are retold here after patent US20110086759A1, “CHEMICAL COMPOUNDS” (SYNGENTA CROP PROTECTION, INC., priority 2007, published 2011).

The structures appear in SMILES notation.

Format in all cases: in vivo
Test [1] has as its system Solanum nigrum (SOLNI). Description: Pre-emergence biological efficacy, glasshouse pot test. Conditions: 312 h, pre-emergence, 1,000 g/ha, evaluated after 13 days (100=total damage; 0=no damage), read-out: Percentage damage SOLNI. The method in brief: (§1)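 Standard soil, pots, sown then sprayed at day 1 with 1000 or 250 g/ha test compound. Glasshouse: 24/16 °C, 14 h photoperiod, 65% humidity, twice-daily watering. Evaluation day 13, 0–100 damage score.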

Test [2] has as its system Alopecurus myosuroides (ALOMY). The test is described as above. Conditions: 312 h, pre-emergence, 1,000 g/ha, evaluated after 13 days (100=total damage; 0=no damage), read-out: Percentage damage ALOMY. The method in brief:
as §1

The subject of test [3] is Echinochloa crus-galli (ECHCG). Described as above. Conditions: 312 h, pre-emergence, 1,000 g/ha, evaluated after 13 days (100=total damage; 0=no damage), read-out: Percentage damage ECHCG. The method in brief: as §1
The subject of test [4] is Setaria faberi (SETFA). The test is described as above. The note with it: 312 h, pre-emergence, 1,000 g/ha, evaluated after 13 days (100=total damage; 0=no damage), read-out: Percentage damage SETFA. The method in brief:
as §1

The subject of test [5] is Ipomea hederaceae (IPOHE). Described as above. Conditions: Ipomoea hederacea, 312 h; pre-emergence, 1,000 g/ha, evaluated after 13 days (100=total damage; 0=no damage); read-out: Percentage damage IPOHE. The method in brief:
as §1

The subject of test [6] is Amaranthus retoflexus (AMARE). The description is as above. The note with it: Amaranthus retroflexus, 312 h; pre-emergence, 1,000 g/ha, evaluated after 13 days (100=total damage; 0=no damage); read-out: Percentage damage AMARE. The method in brief: as §1
The subject of test [7] is Solanum nigrum (SOLNI). Description: Post-emergence biological efficacy, glasshouse pot test. The note with it: 312 h, post-emergence, 1,000 g/ha, evaluated after 13 days (100=total damage; 0=no damage), read-out: Percentage damage caused to weed species, SOLNI. The method in brief: (§2)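 Scored 13 days after spraying on a 0 (no damage) to 100 (total damage) scale. Treatment was a post-emergence spray at 1000 or 250 g/ha, from acetone/water 50:50 plus 0.5% Tween 20, onto 8-day-old plants in soil pots. Growth at 24/16° C, 14 h photoperiod, 65% humidity, watered twice daily.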

In test [8] the test system is Alopecurus myosuroides (ALOMY). Described as above. The note with it: 312 h, post-emergence, 1,000 g/ha, evaluated after 13 days (100=total damage; 0=no damage), read-out: Percentage damage caused to weed species, ALOMY. The method in brief:
as §2

For test [9], the system named is Echinochloa crus-galli (ECHCG). Described as above. Conditions: 312 h, post-emergence, 1,000 g/ha, evaluated after 13 days (100=total damage; 0=no damage), read-out: Percentage damage caused to weed species, ECHCG. The method in brief: as §2
In test [10] the test system is Setaria faberi (SETFA). Described as above. Conditions: 312 h, post-emergence, 1,000 g/ha, evaluated after 13 days (100=total damage; 0=no damage), read-out: Percentage damage caused to weed species, SETFA. The method in brief:
as §2

The test system of test [11] is Ipomea hederaceae (IPOHE). The description is as above. Conditions: Ipomoea hederacea, 312 h; post-emergence, 1,000 g/ha, evaluated after 13 days (100=total damage; 0=no damage); read-out: Percentage damage caused to weed species, IPOHE. The method in brief: as §2
Test [12] relates to Amaranthus retoflexus (AMARE). The description is as above. Conditions: Amaranthus retroflexus, 312 h; post-emergence, 1,000 g/ha, evaluated after 13 days (100=total damage; 0=no damage); read-out: Percentage damage caused to weed species, AMARE. The method in brief:
as §2

With `COC(=O)c1nc(C2CC2)nc(NCc2ccc(N)cc2)c1Cl` [Compound 4-86, 4-(4-Aminophenyl-methylamino)-5-chloro-2-cyclopropyl-6-methoxycarbonyl-pyrimidine], the pest or weed control at 1000 g/ha in the test on Solanum nigrum (SOLNI) [1] came out at 100%; in test [2] it was 60%; in [3], 70%; in the test on Setaria faberi (SETFA) [4] it was 80%; in [5], 100%; in [6], 100%. The pest or weed control at 1000 g/ha in the test on Solanum nigrum (SOLNI) [7] is 100%; in [8] it was 50%; in test [9] it was 70%; in the test on Setaria faberi (SETFA) [10], 90%; in [11] it was 100%; in [12] it was 100%.

Take `COC(=O)c1nc(C2CC2)nc(N[C@@H](Cc2ccc(Cl)cc2)C(=O)OC)c1Cl` [4-285 (S), 5-Chloro-4-[(1S)-2-(4-chlorophenyl)-1-methoxycarbonyl-ethylamino]-2-cyclopropyl-6-methoxycarbonyl-pyrimidine]: the pest or weed control at 1000 g/ha was 90% in the test on Solanum nigrum (SOLNI) [1]; 20% in test [2]; 30% in [3]; 20% in the test on Setaria faberi (SETFA) [4]; 70% in test [5]; 90% in [6]. Besides, the pest or weed control at 1000 g/ha in the test on Solanum nigrum (SOLNI) [7] was determined as 90%; in test [8] it was 20%; in test [9], 20%; with Setaria faberi (SETFA) [10], 40%; in [11], 90%; in test [12], 100%.
